Data reported in ChEMBL document CHEMBL2169807, “Analysis of the structural and mechanistic factors in antioxidants that preserve mitochondrial function and confer cytoprotection” (Bioorg Med Chem, 2012).
Activity calls are given as the source filed them. The rule behind the calls is not given here.

What was measured:
Homo sapiens [1] = organism: Homo sapiens; assay: Preservation of mitochondrial membrane potential in diethyl maleate-treated human Friedreich's ataxia lymphocytes at 0.5 uM pre-incubated for 16 hrs before diethyl maleate challenge by FACS method (reference value: 25%); type: functional
Homo sapiens [2] = organism: Homo sapiens; assay: Inhibition of lipid peroxidation in diethyl maleate-treated human Friedreich's ataxia lymphocytes at 5 uM pre-incubated for 16 hrs before diethyl maleate challenge by FACS method relative to untreated control; type: functional
Homo sapiens [3] = organism: Homo sapiens; assay: Inhibition of lipid peroxidation in diethyl maleate-treated human Friedreich's ataxia lymphocytes at 2.5 uM pre-incubated for 16 hrs before diethyl maleate challenge by FACS method relative to untreated control; type: functional
Homo sapiens [4] = organism: Homo sapiens; assay: Preservation of mitochondrial membrane potential in diethyl maleate-treated human Friedreich's ataxia lymphocytes at 2.5 uM pre-incubated for 16 hrs before diethyl maleate challenge by FACS method (reference value: 25%); type: functional
Homo sapiens [5] = organism: Homo sapiens; assay: Preservation of mitochondrial membrane potential in diethyl maleate-treated human Friedreich's ataxia lymphocytes at 1 uM pre-incubated for 16 hrs before diethyl maleate challenge by FACS method (reference value: 25%); type: functional
Bos taurus [6] = organism: Bos taurus; assay: Inhibition of NADH oxidase activity in bovine heart sub-mitochondrial particles assessed as remaining enzyme activity at 10 uM by spectrophotometry relative to untreated control
Bos taurus [7] = organism: Bos taurus; assay: Inhibition of NADH oxidase activity in bovine heart sub-mitochondrial particles assessed as remaining enzyme activity at 1 uM by spectrophotometry relative to untreated control
CCRF-CEM [8] = assay: Cytoprotection in diethyl maleate-treated human CCRF-CEM cells 0.1 uM incubated for 17 hrs before diethyl maleate challenge by trypan blue dye exclusion method (reference value: 18 +/- 10%); type: functional
CCRF-CEM [9] = assay: Cytoprotection in diethyl maleate-treated human CCRF-CEM cells 2.5 uM incubated for 17 hrs before diethyl maleate challenge by trypan blue dye exclusion method (reference value: 18 +/- 10%); type: functional
Bos taurus [10] = organism: Bos taurus; assay: Inhibition of NADH oxidase activity in bovine heart sub-mitochondrial particles assessed as remaining enzyme activity at 5 uM by spectrophotometry relative to untreated control
CCRF-CEM [11] = assay: Cytoprotection in diethyl maleate-treated human CCRF-CEM cells 0.5 uM incubated for 17 hrs before diethyl maleate challenge by trypan blue dye exclusion method (reference value: 18 +/- 10%); type: functional
CCRF-CEM [12] = assay: Inhibition of diethyl maleate-induced ROS production in human CCRF-CEM cells at 0.25 to 2.5 uM incubated for 16 hrs by DCFH-DA dye staining based FACS method; type: functional, cell-based
[13] = Cytoprotection in diethyl maleate-treated human Friedreich's ataxia lymphocytes incubated for 17 hrs before diethyl maleate challenge by trypan blue dye exclusion method; type: functional

Row | Activity (Bos taurus [6]) | Activity (Bos taurus [7]) | Activity (Bos taurus [10]) | Compound | Activity (Homo sapiens [1]) | inhibition (Homo sapiens [2]) | inhibition (Homo sapiens [3]) | Activity (Homo sapiens [4]) | Activity (Homo sapiens [5]) | Activity (CCRF-CEM [8]) | Activity (CCRF-CEM [9]) | Activity (CCRF-CEM [11]) | inhibition (CCRF-CEM [12]) | EC50 [13]
1 | 43% | 71% | 49% | Cc1cc(-n2c(C)ccc2C)nc(CCCCCCCCCCO)c1O | 35% | 39% | 20% | 52% | 44% | 18% | 26% | 23% |  | 
2 | 25% | 85% | 42% | Cc1cc(N(C)C)nc(CCCCCCCCCCO)c1O | 45% | 82% | 71% | 73% | 54% | 41% | 94% | 59% | Active | 840 nM
3 | 27% | 78% | 59% | Cc1cc(N2C(C)CCC2C)nc(CCCCCCCCCCO)c1O (stereo unspecified) | 66% | 97% | 90% | 83% | 72% | 88% | 93% | 90% | Dose-dependent effect | 150 nM

Further lines, the compound ahead of its results:

Row | Compound | Activity (Bos taurus [6]) | Activity (Bos taurus [7]) | Activity (Bos taurus [10]) | Activity (Homo sapiens [1]) | inhibition (Homo sapiens [2]) | inhibition (Homo sapiens [3]) | Activity (Homo sapiens [4]) | Activity (Homo sapiens [5]) | Activity (CCRF-CEM [8]) | Activity (CCRF-CEM [9]) | Activity (CCRF-CEM [11]) | inhibition (CCRF-CEM [12]) | EC50 [13]
4 | Cc1cc(N(C)C)nc(C)c1O |  |  |  | 29% | 3.9% | 3.5% |  |  |  |  |  |  | 
5 | Cc1cc(N)nc(CCCCCCCCCCO)c1O | 48% | 74% | 52% | 42% | 74% | 62% | 65% | 50% | 28% | 78% | 38% | Active | 
6 | Cc1c(N(C)C)nc(CCCCCCCCCCO)c(O)c1C | 6% | 27% | 9% | 60% | 97% | 87% | 70% | 75% | 42% | 92% | 47% | Active | 560 nM
7 | Cc1nc(N(C)C)nc(CCCCCCCCCCO)c1O | 22% | 49% | 26% | 68% | 91% | 83% | 86% | 75% | 76% | 94% | 93% | Active | 380 nM
8 | COC1=C(OC)C(=O)C(CCCCCCCCCCO)=C(C)C1=O [IDEBENONE] | 15% | 65% | 53% | 47% | 77% | 68% | 75% | 57% | 34% | 88% | 49% | Active | 730 nM
